Measured values from PubChem BioAssay AID1919003 (Molecular Pharmacology Branch, DTP, NCI, 2023).

System: 786-0 complex spheroids with HUVEC/MSC, growth % test/control
Experiment: Anticancer human tumor 786-0 cell line growth inhibition [AhR];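 also: compound exposure lasted seven days before the read-out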
Conditions: for viability, T/C: stronger effect = lower value
How it was run: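 Agents were dosed in half-log steps down from roughly clinical Cmax, or from 10 microM where Cmax was unknown, alone and with AhR antagonists. Read-out: percent test/control growth of tumor spheroids containing HUVEC and MSC stromal cells.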

[1] = curve of first compound, second compound 0.1 µM
[2] = curve of first compound, second compound 0.316 µM
[3] = curve of first compound, second compound 1 µM
[4] = curve of first compound, second compound 3.16 µM
[5] = curve of first compound, second compound 10 µM

Cc1ccccc1N=Nc1ccc(NC(=O)c2ccnn2C)c(C)c1
viability, T/C (compound 0.1 µM): 99.5% [middle of 20 runs]
viability, T/C (compound 0.316 µM): 99.1% [middle of 20 runs]
viability, T/C (compound 1 µM): 97.1% [middle of 20 runs]
IC50 (compound alone, run of 08/22/2022): > 10000 nM

COc1cccc2c1C(=O)c1c(O)c3c(c(O)c1C2=O)CC(O)(C(=O)CO)CC3OC1CC(N)C(O)C(C)O1 (centres undefined) + Cc1ccccc1N=Nc1ccc(NC(=O)c2ccnn2C)c(C)c1
IC50 [1]: 126 nM
IC50 [2]: 122 nM
IC50 [3]: 132 nM
IC50 [4]: 119 nM
IC50 [5]: 76.5 nM
viability, T/C (second compound 0.1 µM, first compound 0.0316 µM): 73.8%
viability, T/C (second compound 0.1 µM, first compound 0.1 µM): 56.6%
viability, T/C (second compound 0.1 µM, first compound 0.316 µM): 24.7%
viability, T/C (second compound 0.1 µM, first compound 1 µM): 9.36%
viability, T/C (second compound 0.1 µM, first compound 3.16 µM): 1.43%
viability, T/C (second compound 0.1 µM, first compound 10 µM): 1.74%
viability, T/C (second compound 0.316 µM, first compound 0.0316 µM): 69.3%
viability, T/C (second compound 0.316 µM, first compound 0.1 µM): 55.7%
viability, T/C (second compound 0.316 µM, first compound 0.316 µM): 24.7%
viability, T/C (second compound 0.316 µM, first compound 1 µM): 10.1%
viability, T/C (second compound 0.316 µM, first compound 3.16 µM): 2.44%
viability, T/C (second compound 0.316 µM, first compound 10 µM): 3.3%
viability, T/C (second compound 1 µM, first compound 0.0316 µM): 77.4%
viability, T/C (second compound 1 µM, first compound 0.1 µM): 57.4%
viability, T/C (second compound 1 µM, first compound 0.316 µM): 26.7%
viability, T/C (second compound 1 µM, first compound 1 µM): 9.75%
viability, T/C (second compound 1 µM, first compound 3.16 µM): 1.55%
viability, T/C (second compound 1 µM, first compound 10 µM): 1.78%
viability, T/C (second compound 3.16 µM, first compound 0.0316 µM): 66.6%
viability, T/C (second compound 3.16 µM, first compound 0.1 µM): 55.2%
viability, T/C (second compound 3.16 µM, first compound 0.316 µM): 24.5%
viability, T/C (second compound 3.16 µM, first compound 1 µM): 9.36%
viability, T/C (second compound 3.16 µM, first compound 3.16 µM): 1.41%
viability, T/C (second compound 3.16 µM, first compound 10 µM): 1.09%
viability, T/C (second compound 10 µM, first compound 0.0316 µM): 57.6%
viability, T/C (second compound 10 µM, first compound 0.1 µM): 48.8%
viability, T/C (second compound 10 µM, first compound 0.316 µM): 22.4%
viability, T/C (second compound 10 µM, first compound 1 µM): 9.51%
viability, T/C (second compound 10 µM, first compound 3.16 µM): 1.98%
viability, T/C (second compound 10 µM, first compound 10 µM): 1.15%

O=C(C=Cn1cnc(-c2cc(C(F)(F)F)cc(C(F)(F)F)c2)n1)NNc1cnccn1 + CC(CO)NC(=O)c1cc(-c2ccc(Cl)cc2)nn(-c2cnn(C)c2)c1=O
IC50 [1]: 278 nM
IC50 [2]: 251 nM
IC50 [3]: 242 nM
IC50 [4]: 246 nM
IC50 [5]: 278 nM
viability, T/C (second compound 0.1 µM, first compound 0.00949 µM): 108%
viability, T/C (second compound 0.1 µM, first compound 0.03 µM): 110%
viability, T/C (second compound 0.1 µM, first compound 0.0949 µM): 107%
viability, T/C (second compound 0.1 µM, first compound 0.3 µM): 45.5%
viability, T/C (second compound 0.1 µM, first compound 0.949 µM): 25.7%
viability, T/C (second compound 0.1 µM, first compound 3 µM): 10.5%
viability, T/C (second compound 0.316 µM, first compound 0.00949 µM): 111%
viability, T/C (second compound 0.316 µM, first compound 0.03 µM): 113%
viability, T/C (second compound 0.316 µM, first compound 0.0949 µM): 112%
viability, T/C (second compound 0.316 µM, first compound 0.3 µM): 38.7%
viability, T/C (second compound 0.316 µM, first compound 0.949 µM): 28.2%
viability, T/C (second compound 0.316 µM, first compound 3 µM): 11%
viability, T/C (second compound 1 µM, first compound 0.00949 µM): 105%
viability, T/C (second compound 1 µM, first compound 0.03 µM): 115%
viability, T/C (second compound 1 µM, first compound 0.0949 µM): 113%
viability, T/C (second compound 1 µM, first compound 0.3 µM): 36%
viability, T/C (second compound 1 µM, first compound 0.949 µM): 24.5%
viability, T/C (second compound 1 µM, first compound 3 µM): 9.93%
viability, T/C (second compound 3.16 µM, first compound 0.00949 µM): 110%
viability, T/C (second compound 3.16 µM, first compound 0.03 µM): 116%
viability, T/C (second compound 3.16 µM, first compound 0.0949 µM): 106%
viability, T/C (second compound 3.16 µM, first compound 0.3 µM): 37.9%
viability, T/C (second compound 3.16 µM, first compound 0.949 µM): 22.9%
viability, T/C (second compound 3.16 µM, first compound 3 µM): 9.29%
viability, T/C (second compound 10 µM, first compound 0.00949 µM): 119%
viability, T/C (second compound 10 µM, first compound 0.03 µM): 122%
viability, T/C (second compound 10 µM, first compound 0.0949 µM): 107%
viability, T/C (second compound 10 µM, first compound 0.3 µM): 44.8%
viability, T/C (second compound 10 µM, first compound 0.949 µM): 23.6%
viability, T/C (second compound 10 µM, first compound 3 µM): 10.6%
